Experimental data reported in patent US10563263B2, “Genetic polymorphisms associated with statin response and cardiovascular diseases, methods of detection and uses thereof” (CELERA CORPORATION, priority 2010, dated 2020).

Tested on: CHD (death from CHD, nonfatal MI, or revascularization)
Assay: WOSCOPS: SNP by pravastatin treatment interaction, logistic regression (synergy index), CHD endpoint
Format: in vivo, human
Conditions: for OR (synergy index): WOSCOPS
From the text: CARE was a secondary prevention trial and WOSCOPS was a primary prevention trial.
The CHD endpoint was defined in the analyses herein of CARE as a composite endpoint of fatal CHD, definite non-fatal MI, or revascularization, and was defined in the analyses herein of WOSCOPS as a composite endpoint of death from CHD, nonfatal MI, or revascularization. In both the CARE and WOSCOPS analyses herein, the CVD endpoint was defined as a composite endpoint of CHD or stroke. […] Revascularization, which can include percutaneous transluminal coronary angioplasty (PTCA), stent placement, and coronary artery bypass graft (CABG), are medical interventions that indicate the presence of CHD.
Cohort and case-only study designs were used to identify SNPs associated with response to statin treatment.
For each SNP, a logistic regression model having treatment status as the dependent variable and SNP as the independent predictor variable was performed, with terms for age, sex and race included in the model as covariates. The anti-log of the regression coefficient corresponding to the SNP is an estimate of the synergy index (SI) (Davis et al., “Imputing gene-treatment interactions when the genotype distribution is unknown using case-only and putative placebo analyses-a new method for the Genetics of Hypertension Associated Treatment (GenHAT) study”, Statistics in Medicine 23: (2004), pages 2413-2427). The SI is a ratio of odds ratios: for example in the CARE and WOSCOPS studies, the SI represents the factor by which the odds-ratio of statin treatment, compared with placebo, among major homozygous individuals is multiplied by in order to obtain the odds-ratio of treatment vs. placebo among heterozygous individuals; and multiplied by a second time to obtain the odds-ratio of treatment vs. placebo in minor homozygous individuals. The case-only study design results in a valid estimate of the SI under the assumption that genotype and treatment are independent in the population. In a randomized clinical trial, genotype and treatment are independent by design. The p-value for the regression coefficient corresponding to the SNP results from a test of the null hypothesis that the regression coefficient is equal to zero (SI is equal to one) and thus small p-values indicate the SI is unlikely equal to one and that the effect of treatment likely differs by genotype. […]

Structure (SMILES): CC[C@H](C)C(=O)O[C@H]1C[C@H](O)C=C2C=C[C@H](C)[C@H](CC[C@@H](O)C[C@@H](O)CC(=O)O)[C@H]21 [Pravastatin, pravastatin]
- WOSCOPS OR (rs4726711, source CaseOnly, model add, endpoint CHD): 0.62
- OR (synergy index) (rs4736802 allele G, DOM model, Imputed): 1.614
- OR (synergy index) (rs4760785 allele A, ADD model, Imputed): 0.7714
- OR (synergy index) (rs4760785 allele A, DOM model, Imputed): 0.5986
- OR (synergy index) (rs4760894 allele T, ADD model, Imputed): 0.7714
- OR (synergy index) (rs4760894 allele T, DOM model, Imputed): 0.5986
- OR (synergy index) (rs4760895 allele A, ADD model, Imputed): 0.7714
- OR (synergy index) (rs4760895 allele A, DOM model, Imputed): 0.5986
- OR (synergy index) (rs4764738 allele A, ADD model, Imputed): 1.555
- OR (synergy index) (rs4764974 allele T, ADD model, Imputed): 1.512
- OR (synergy index) (rs4798366 allele G, REC model, Imputed): 2.304
- WOSCOPS OR (rs4830819, source CaseOnly, model add, endpoint CHD): 0.66
- OR (synergy index) (rs4836502 allele T, DOM model, Imputed): 0.6887
- OR (synergy index) (rs4836507 allele C, DOM model, Imputed): 0.6884
- OR (synergy index) (rs4836744 allele A, ADD model, Imputed): 0.7704
- OR (synergy index) (rs4836744 allele A, DOM model, Imputed): 0.6637
- WOSCOPS OR (rs4836745, Source caseonly): 0.65
- OR (synergy index) (rs4848944 allele C, REC model, Genotyped): 0.464
- OR (synergy index) (rs4851529 allele A, DOM model, Imputed): 0.5663
- OR (synergy index) (rs4851531 allele T, DOM model, Imputed): 0.5588
- WOSCOPS OR (rs4870109, Source caseonly): 1.47
- OR (synergy index) (rs4878214 allele A, ADD model, Imputed): 0.7413
- OR (synergy index) (rs4880803 allele A, ADD model, Imputed): 0.7588
- OR (synergy index) (rs4896568 allele T, DOM model, Imputed): 0.5426
- WOSCOPS OR (rs4924215, source CaseOnly, model dom, endpoint CHD): 1.46
- OR (synergy index) (rs4938851 allele T, DOM model, Imputed): 1.301
- OR (synergy index) (rs4964416 allele C, DOM model, Imputed): 0.6799
- WOSCOPS OR (rs5750116, source cohort, model dom, endpoint CHD): 1.45
- OR (synergy index) (rs5756669 allele C, DOM model, Imputed): 1.541
- OR (synergy index) (rs6033138 allele C, ADD model, Imputed): 1.407
- OR (synergy index) (rs6033138 allele C, REC model, Imputed): 1.414
- OR (synergy index) (rs6040619 allele C, ADD model, Imputed): 1.488
- OR (synergy index) (rs6040619 allele C, REC model, Imputed): 1.688
- OR (synergy index) (rs6040625 allele T, ADD model, Imputed): 1.479
- OR (synergy index) (rs6040625 allele T, REC model, Imputed): 1.634
- OR (synergy index) (rs6040630 allele A, ADD model, Imputed): 1.42
- OR (synergy index) (rs6040630 allele A, REC model, Imputed): 1.462
- OR (synergy index) (rs6040633 allele A, ADD model, Imputed): 1.407
- WOSCOPS OR (rs6080603, source CaseOnly, model dom, endpoint CHD): 0.68
- WOSCOPS OR (rs6474228, Source caseonly): 1.83
- WOSCOPS OR (rs6491586, source CaseOnly, model dom, endpoint CHD): 1.78
- WOSCOPS OR (rs6505669, source CaseOnly, model dom, endpoint CHD): 1.37
- WOSCOPS OR (rs6585412, Source caseonly): 1.44
- WOSCOPS OR (rs6998016, Source caseonly): 9.63
- WOSCOPS OR (rs7018577, Source caseonly): 1.94
- WOSCOPS OR (rs7078016, Source caseonly): 1.44
- WOSCOPS OR (rs7193741, source cohort, model rec, endpoint CHD): 1.87
- WOSCOPS OR (rs7305949, Source caseonly): 1.74
- WOSCOPS OR (rs7332076, Source caseonly): 2.18
- WOSCOPS OR (rs7449527, Source caseonly): 1.71
- WOSCOPS OR (rs7521242, source CaseOnly, model add, endpoint CHD): 0.74
- WOSCOPS OR (rs7625204, source cohort, model add, endpoint CHD): 1.38
- WOSCOPS OR (rs7629632, source CaseOnly, model dom, endpoint CHD): 1.72
- WOSCOPS OR (rs7705993, source CaseOnly, model add, endpoint CHD): 1.44
- WOSCOPS OR (rs7742508, source cohort, model dom, endpoint CHD): 1.93
- WOSCOPS OR (rs7839562, Source caseonly): 1.63
- WOSCOPS OR (rs7916629, Source caseonly): 1.66
- WOSCOPS OR (rs9446187, source cohort, model dom, endpoint CHD): 2.05
- WOSCOPS OR (rs9859901, source CaseOnly, model add, endpoint CHD): 0.41
- WOSCOPS OR (rs10120126, source CaseOnly, model dom, endpoint CHD): 0.48
- WOSCOPS OR (rs10155047, source cohort, model add, endpoint CHD): 0.50
- WOSCOPS OR (rs10189905, source cohort, model add, endpoint CHD): 0.56
- WOSCOPS OR (rs10305439, source CaseOnly, model dom, endpoint CHD): 0.63
- WOSCOPS OR (rs10429616, source cohort, model rec, endpoint CHD): 1.54
- WOSCOPS OR (rs10497883, Source caseonly): 0.67
- WOSCOPS OR (rs10500736, source cohort, model dom, endpoint CHD): 0.52
- WOSCOPS OR (rs10774580, Source caseonly): 0.56
- WOSCOPS OR (rs10814422, source CaseOnly, model dom, endpoint CHD): 0.46
- WOSCOPS OR (rs10935907, source CaseOnly, model dom, endpoint CHD): 1.49
- WOSCOPS OR (rs10945874, Source caseonly): 1.24
- WOSCOPS OR (rs10973013, source CaseOnly, model dom, endpoint CHD): 0.48
- WOSCOPS OR (rs11138314, Source cohort): 0.59
- WOSCOPS OR (rs11148285, Source caseonly): 2.30
- WOSCOPS OR (rs11585647, Source caseonly): 0.67
- WOSCOPS OR (rs11721179, Source caseonly): 0.60
- WOSCOPS OR (rs12556591, source CaseOnly, model add, endpoint CHD): 0.66
- WOSCOPS OR (rs13126170, Source caseonly): 0.78
- WOSCOPS OR (rs13129010, Source caseonly): 1.90
- WOSCOPS OR (rs13137776, source CaseOnly, model add, endpoint CHD): 0.62
- WOSCOPS OR (rs13279522, source cohort, model add, endpoint CHD): 0.63
- WOSCOPS OR (rs13318232, source CaseOnly, model dom, endpoint CHD): 0.40
- WOSCOPS OR (rs13431868, source CaseOnly, model dom, endpoint CHD): 1.42
- WOSCOPS OR (rs16885715, Source caseonly): 1.58
- WOSCOPS OR (rs17002013, Source caseonly): 1.66
- WOSCOPS OR (rs17076974, source cohort, model add, endpoint CHD): 1.32
- WOSCOPS OR (rs17138705, source CaseOnly, model add, endpoint CHD): 0.70
- WOSCOPS OR (rs17688430, Source caseonly): 0.71
- WOSCOPS OR (rs17706237, source CaseOnly, model dom, endpoint CHD): 1.52
